For this experiment, the system named is murine squamous cell carcinoma (SCC VII). Briefly: Antitumor effect (tumor size) in both-side side-abdomen implanted SCC VII tumor-bearing mice. The experiment is classed as in vivo, C3H/He Slc mice. The note with it: for antitumor effect (tumor size), tumor with administration of the drug (treated group): FIG. 1A, intratumoral administration on Day 0, 3, 6, compared to MOCK (saline solution), C-REV 1×10^6 pfu/100 μl, cGAMP 20 μg/100 μl; for antitumor effect (tumor size), tumor spaced apart from the tumor with administration of the drug (non-treated group): FIG. 1B / FIG. 2, tumor on opposite side of the abdomen received saline solution only, drug given to the other tumor on Day 0, 3, 6. The source says: Six-week-old female C3H/He Slc mice (purchased from Chubu Kagaku Shizai Co., Ltd.) were used as mice. A tumor of murine squamous cell carcinoma (SCC VII; given by professor Shin-ichiro Masunaga, Kyoto University Institute for Integrated Radiation and Nuclear Science) was cut into 2 mmcubes, and two of the cubes were implanted under the skin on both sides of the abdomen of the mice by a tumor implantation needle (both-side side-abdomen implanted model). When the size of the tumor reached the size of 100 mm^3, grouping was performed. Although differing among the mice, one tumor end and the other tumor end were spaced apart from each other by about 10 mm.
First medicine: C-REV was suspended in a saline solution to obtain a concentration of 1×10^6 pfu/100 μl.
Second medicine: 2′3′-cGAMP (No. tlrl-nacga23 by Invivogen) was dissolved and suspended in a saline solution to obtain a concentration of 20 μg/100 μl.
Day 0: The first medicine of 100 μl was administered to a tumor (treated group) on one side of the abdomen. Further, a saline solution of 100 μl was administered to a tumor (non-treated group) on the other side of the abdomen. Day 3: The second medicine of 100 μl was administered to a tumor (treated group) on one side of the abdomen. Further, a saline solution of 100 μl was administered to a tumor (non-treated group) on the other side of the abdomen. Day 6: The second medicine of 100 μl was administered to a tumor (treated group) on one side of the abdomen. Further, a saline solution of 100 μl was administered to a tumor (non-treated group) on the other side of the abdomen.
The tumor size was calculated from multiplication of the longer diameter by the shorter diameter by the shorter diameter by 1/2 of a tumor.
The experiment was performed in the same procedure as for Example 1 except for administration of a saline solution of 100 μl on Day 3 and Day 6 instead of the administration of the second medicine to the treated group.
The experiment was performed in the same procedure as for Example 1 except for administration of the second medicine on Day 0 instead of the administration of the first medicine to the treated group and except for administration of a saline solution of 100 μl on Day 3 and Day 6 instead of the administration of the second medicine to the treated group.
The experiment was performed in the same procedure as for Example 1 except for administration of a saline solution of 100 μl on Day 0 instead of the administration of the first medicine to the treated group and except for administration of a saline solution of 100 μl on Day 3 and Day 6 instead of the administration of the second medicine to the treated group.
The experiment was performed in the same procedure as for Example 1 except for use of the hrR3 instead of the C-REV as the first medicine. […]

With `Nc1nc2c(ncn2[C@@H]2O[C@@H]3COP(=O)(O)O[C@H]4[C@@H](O)[C@H](n5cnc6c(N)ncnc65)O[C@@H]4COP(=O)(O)O[C@@H]2[C@@H]3O)c(=O)[nH]1` [cGAMP, 2′3′-cyclic GMP-AMP], the “antitumor effect (tumor size), tumor with administration of the drug (treated group)” value is given as “an antitumor effect was developed” and the “antitumor effect (tumor size), tumor spaced apart from the tumor with administration of the drug (non-treated group)” value is recorded as “almost no antitumor effect”.
For Canerpaturev [C-REV], the “antitumor effect (tumor size), tumor with administration of the drug (treated group)” value is reported as “an antitumor effect was developed” and the “antitumor effect (tumor size), tumor spaced apart from the tumor with administration of the drug (non-treated group)” value is given as “almost no antitumor effect”.

These data come from patent US20220273739A1, “COMBINATION DRUG FOR TREATING MALIGNANT TUMOR, PHARMACEUTICAL COMPOSITION FOR TREATING MALIGNANT TUMOR, AND PHARMACEUTICAL COMPOSITION FOR MALIGNANT TUMOR TREATMENT” (priority 2019, published 2022).
